The target in this test is T1, human 5HT2c receptor (INI isoform) (Homo sapiens, UniProt P28335).
T1 sequence (P28335 33-458): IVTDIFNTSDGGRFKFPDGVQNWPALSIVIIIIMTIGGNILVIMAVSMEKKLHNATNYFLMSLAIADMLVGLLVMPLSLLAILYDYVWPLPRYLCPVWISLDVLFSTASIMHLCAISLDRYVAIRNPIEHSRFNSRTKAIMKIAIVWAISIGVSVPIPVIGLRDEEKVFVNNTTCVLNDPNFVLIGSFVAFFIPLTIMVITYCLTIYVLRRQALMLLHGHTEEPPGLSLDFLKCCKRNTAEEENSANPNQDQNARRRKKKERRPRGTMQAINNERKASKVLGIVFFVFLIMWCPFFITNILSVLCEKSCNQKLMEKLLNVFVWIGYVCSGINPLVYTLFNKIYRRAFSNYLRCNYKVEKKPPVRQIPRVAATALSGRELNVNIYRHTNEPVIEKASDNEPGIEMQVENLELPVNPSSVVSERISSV
The test is described as follows: Phosphotidyl Inositol Turnover Assay (IP-One Tb kit), agonist potency. Type of test: cell-based.

[1] abbreviates: 5-HT2c PI turnover potency of the more active isomer (where applicable), HEK 293 EBNA cells expressing INI isoform of human 5HT2c receptor, read-out: Potency at 5HT2c (INI isoform).

Each structure is given as a SMILES string. Where two headings read alike, the source gives them in different places.

In turn, `c1cc2c(c3c1CCC3)CCNCC2` [Example 1, 1,2,3,6,7,8,9,10-Octahydro-8-aza-cyclohepta[e]indene] had an EC50 of under 10 nM. Still for that read-out and setting: as for `CC1CCc2ccc3c(c21)CCNCC3` (stereo not shown) [Example 2, 1-Methyl-1,2,3,6,7,8,9,10-octahydro-8-aza-cyclohepta[e]indene], the figure is under 10 nM; as for `CCC1CCc2ccc3c(c21)CCNCC3` (stereo not shown) [Example 3, 1-Ethyl-1,2,3,6,7,8,9,10-octahydro-8-aza-cyclohepta[e]indene], under 10 nM. For `c1cc2c(c3c1CCNCC3)C(C1CC1)CC2` (stereo not shown) [Example 4, 1-Cyclopropyl-1,2,3,6,7,8,9,10-octahydro-8-aza-cyclohepta[e]indene], the EC50 under setting [1] is under 10 nM. Take `CCCC1CCc2ccc3c(c21)CCNCC3` (stereo not shown) [Example 5, 1-Propyl-1,2,3,6,7,8,9,10-octahydro-8-aza-cyclohepta[e]indene]: the EC50 is under 10 nM. Consider `CCC1CCc2c(Cl)cc3c(c21)CCNCC3` (stereo not shown) [Example 6, 4-Chloro-1-ethyl-1,2,3,6,7,8,9,10-octahydro-8-aza-cyclohepta[e]indene], for which the EC50 is under 10 nM. The same measure, in the same setting: the same measure for `CCC1CCc2c(I)cc3c(c21)CCNCC3` (stereo not shown) [Example 7, 1-Ethyl-4-iodo-1,2,3,6,7,8,9,10-octahydro-8-aza-cyclohepta[e]indene]: under 10 nM; for `CCC1CCc2c(F)cc3c(c21)CCNCC3` (stereo not shown) [Example 8, 1-Ethyl-4-fluoro-1,2,3,6,7,8,9,10-octahydro-8-aza-cyclohepta[e]indene]: under 10 nM. On to `c1ccc(C2CCc3ccc4c(c32)CCNCC4)cc1` (stereo not shown) [Example 9, 1-Phenyl-1,2,3,6,7,8,9,10-octahydro-8-aza-cyclohepta[e]indene], for which, under setting [1], the EC50 was under 10 nM. `Clc1cc2c(c3c1CCC3c1ccccc1)CCNCC2` (stereo not shown) [Example 10, 4-Chloro-1-phenyl-1,2,3,6,7,8,9,10-octahydro-8-aza-cyclohepta[e]indene] showed an EC50 of under 10 nM. Regarding `c1cncc(C2CCc3ccc4c(c32)CCNCC4)c1` (stereo not shown) [Example 11, 1-Pyridin-3-yl-1,2,3,6,7,8,9,10-octahydro-8-aza-cyclohepta[e]indene], under setting [1], the EC50 is under 10 nM. Consider `Fc1cc2c(c3c1CCC3c1cccnc1)CCNCC2` (stereo not shown) [Example 12, 4-Fluoro-1-pyridin-3-yl-1,2,3,6,7,8,9,10-octahydro-8-aza-cyclohepta[e]indene], for which the EC50 under setting [1] was under 10 nM.

As for `CC1(C)CCc2ccc3c(c21)CCNCC3` [Example 13, 1,1-Dimethyl-1,2,3,6,7,8,9,10-octahydro-8-aza-cyclohepta[e]indene], the EC50 is under 10 nM. For `FC1(F)Cc2ccc3c(c2C1c1ccccc1)CCNCC3` (stereo not shown) [Example 14, 2,2-Difluoro-1-phenyl-1,2,3,6,7,8,9,10-octahydro-8-aza-cyclohepta[e]indene], the EC50 under setting [1] is under 10 nM.

As to `Cc1ccccc1C1c2c(ccc3c2CCNCC3)CC1(F)F` (stereo not shown) [Example 15, 2,2-Difluoro-1-o-tolyl-1,2,3,6,7,8,9,10-octahydro-8-aza-cyclohepta[e]indene], the EC50 under setting [1] is under 10 nM. On the same count and under the same terms, as for `Cc1cccc(C2c3c(ccc4c3CCNCC4)CC2(F)F)c1` (stereo not shown) [Example 16, 2,2-Difluoro-1-m-tolyl-1,2,3,6,7,8,9,10-octahydro-8-aza-cyclohepta[e]indene], the figure is under 10 nM; as for `Cc1ccc(C2c3c(ccc4c3CCNCC4)CC2(F)F)cc1` (stereo not shown) [Example 17, 2,2-Difluoro-1-p-tolyl-1,2,3,6,7,8,9,10-octahydro-8-aza-cyclohepta[e]indene], under 100 nM; as for `FC(F)(F)c1cccc(C2c3c(ccc4c3CCNCC4)CC2(F)F)c1` (stereo not shown) [Example 18, 2,2-Difluoro-1-(3-trifluoromethyl-phenyl)-1,2,3,6,7,8,9,10-octahydro-8-aza-cyclohepta[e]indene], under 10 nM.

Consider `FC(F)(F)Oc1cccc(C2c3c(ccc4c3CCNCC4)CC2(F)F)c1` (stereo not shown) [Example 19, 2,2-Difluoro-1-(3-trifluoromethoxy-phenyl)-1,2,3,6,7,8,9,10-octahydro-8-aza-cyclohepta[e]indene], for which the EC50 under setting [1] was under 10 nM. Still for that read-out and setting: as for `Fc1ccc(C2c3c(ccc4c3CCNCC4)CC2(F)F)cc1` (stereo not shown) [Example 20, 2,2-Difluoro-1-(4-fluoro-phenyl)-1,2,3,6,7,8,9,10-octahydro-8-aza-cyclohepta[e]indene], the figure is under 10 nM; as for `Fc1cccc(C2c3c(ccc4c3CCNCC4)CC2(F)F)c1` (stereo not shown) [Example 21, 2,2-Difluoro-1-(3-fluoro-phenyl)-1,2,3,6,7,8,9,10-octahydro-8-aza-cyclohepta[e]indene], under 10 nM.

For the molecule `FC1(F)Cc2ccc3c(c2C1C1CC1)CCNCC3` (stereo not shown) [Example 22, 1-Cyclopropyl-2,2-difluoro-1,2,3,6,7,8,9,10-octahydro-8-aza-cyclohepta[e]indene], the EC50 under setting [1] was under 10 nM. Take `FC1(F)Cc2ccc3c(c2C1c1cccc(Cl)c1)CCNCC3` (stereo not shown) [Example 23, 1-(3-Chloro-phenyl)-2,2-difluoro-1,2,3,6,7,8,9,10-octahydro-8-aza-cyclohepta[e]indene]: the EC50 under setting [1] was under 10 nM. The same measure, in the same setting: as for `FC1(F)Cc2ccc3c(c2C1c1ccc(Cl)cc1)CCNCC3` (stereo not shown) [Example 24, 1-(4-Chloro-phenyl)-2,2-difluoro-1,2,3,6,7,8,9,10-octahydro-8-aza-cyclohepta[e]indene], the figure is under 10 nM; as for `COc1ccccc1C1c2c(ccc3c2CCNCC3)CC1(F)F` (stereo not shown) [Example 25, 2,2-Difluoro-1-(2-methoxy-phenyl)-1,2,3,6,7,8,9,10-octahydro-8-aza-cyclohepta[e]indene], under 10 nM.

In the case of `COc1cccc(C2c3c(ccc4c3CCNCC4)CC2(F)F)c1` (stereo not shown) [Example 26, 2,2-Difluoro-1-(3-methoxy-phenyl)-1,2,3,6,7,8,9,10-octahydro-8-aza-cyclohepta[e]indene], under setting [1], the EC50 is under 10 nM.

Take `COc1ccc(C2c3c(ccc4c3CCNCC4)CC2(F)F)cc1` (stereo not shown) [Example 27, 2,2-Difluoro-1-(4-methoxy-phenyl)-1,2,3,6,7,8,9,10-octahydro-8-aza-cyclohepta[e]indene]: the EC50 under setting [1] was under 100 nM. On the same count and under the same terms, the same measure for `FC1(F)Cc2ccc3c(c2C1c1cccnc1)CCNCC3` (stereo not shown) [Example 28, 2,2-Difluoro-1-pyridin-3-yl-1,2,3,6,7,8,9,10-octahydro-8-aza-cyclohepta[e]indene]: under 10 nM.

Consider `FC1(F)Cc2ccc3c(c2C1c1ccncc1)CCNCC3` (stereo not shown) [Example 29, 2,2-Difluoro-1-pyridin-4-yl-1,2,3,6,7,8,9,10-octahydro-8-aza-cyclohepta[e]indene], for which, under setting [1], the EC50 was under 1000 nM. The same measure, in the same setting: the same measure for `FC1(F)Cc2c(Cl)cc3c(c2C1c1cccnc1)CCNCC3` (stereo not shown) [Example 30, 4-Chloro-2,2-difluoro-1-pyridin-3-yl-1,2,3,6,7,8,9,10-octahydro-8-aza-cyclohepta[e]indene]: under 10 nM. Take `CCC1c2c(ccc3c2CCNCC3)CC1(F)F` (stereo not shown) [Example 31, 1-Ethyl-2,2-difluoro-1,2,3,6,7,8,9,10-octahydro-8-aza-cyclohepta[e]indene]: the EC50 is under 10 nM. Same read-out and setting: as for `CC1c2c(ccc3c2CCNCC3)CC1(F)F` (stereo not shown) [Example 32, 2,2-Difluoro-1-methyl-1,2,3,6,7,8,9,10-octahydro-8-aza-cyclohepta[e]indene], the figure is under 10 nM. Take `FC1(F)Cc2ccc3c(c2C1Cc1ccccc1)CCNCC3` (stereo not shown) [Example 33, 1-Benzyl-2,2-difluoro-1,2,3,6,7,8,9,10-octahydro-8-aza-cyclohepta[e]indene]: the EC50 under setting [1] was under 10 nM. `CC1(C)c2c(ccc3c2CCNCC3)CC1(F)F` [Example 34, 2,2-Difluoro-1,1-dimethyl-1,2,3,6,7,8,9,10-octahydro-8-aza-cyclohepta[e]indene] showed an EC50 of under 10 nM.

Regarding `CC1(C)CCc2c(-c3ccccc3)cc3c(c21)CCNCC3` [Example 35, 1,1-Dimethyl-4-phenyl-1,2,3,6,7,8,9,10-octahydro-8-aza-cyclohepta[e]indene], the EC50 is under 1000 nM. The molecule `CCC1COc2ccc3c(c21)CCNCC3` (stereo not shown) [Example 36, 1-Ethyl-1,2,7,8,9,10-hexahydro-6H-3-oxa-8-aza-cyclohepta[e]indene] came in with an EC50 of under 10 nM. On the same count and under the same terms, the same measure for `CCC1CCOc2ccc3c(c21)CCNCC3` (stereo not shown) [Example 37, 1-Ethyl-2,3,8,9,10,11-hexahydro-1H,7H-4-oxa-9-aza-cyclohepta[a]naphthalene]: under 10 nM. As for `COC1c2c(ccc3c2CCNCC3)CC1(F)F` (stereo not shown) [Example 38, 2,2-Difluoro-1-methoxy-1,2,3,6,7,8,9,10-octahydro-8-aza-cyclohepta[e]indene], the EC50 was under 10 nM.

On to `c1ccc(-c2coc3ccc4c(c23)CCNCC4)cc1` [Example 39, 1-Phenyl-7,8,9,10-tetrahydro-6H-3-oxa-8-aza-cyclohepta[e]indene], for which the EC50 under setting [1] was under 10 nM.

Turning to `c1csc(C2CCc3ccc4c(c32)CCNCC4)n1` (stereo not shown) [Example 40, 1-Thiazol-2-yl-1,2,3,6,7,8,9,10-octahydro-8-aza-cyclohepta[e]indene], the EC50 under setting [1] was under 10 nM. For `CCOC1c2c(ccc3c2CCNCC3)CC1(F)F` (stereo not shown) [Example 41, 1-Ethoxy-2,2-difluoro-1,2,3,6,7,8,9,10-octahydro-8-aza-cyclohepta[e]indene], the EC50 was under 10 nM. The same measure, in the same setting: as for `FC1(F)Cc2ccc3c(c2C1)CCNCC3` [Example 42, 2,2-Difluoro-1,2,3,6,7,8,9,10-octahydro-8-aza-cyclohepta[e]indene], the figure is under 10 nM; as for `COC1CCc2ccc3c(c21)CCNCC3` (stereo not shown) [Example 43, 1-Methoxy-1,2,3,6,7,8,9,10-octahydro-8-aza-cyclohepta[e]indene], under 10 nM.

(Values after US9284277B2, “Benzazepines as serotonin 5-HT2C receptor ligands and uses thereof” (ABT Holding Company, priority 2012, dated 2016).)
